Test results: patent US11083707B2, “Substituted indoline derivatives as dengue viral replication inhibitors” (JANSSEN PHARMACEUTICALS, INC., priority 2017, dated 2021)
Where two headings read alike, the source gives them in different places.

What was measured:
in vitro [1] = conditions: African green monkey
DENV-2 16681 strain = assay: DENV-2 antiviral assay (eGFP fluorescence, Vero cells); type: cell-based, Dengue virus; conditions: DENV-2 16681 eGFP, MOI 0.5, 3 days
Experimental: The antiviral activity of all the compounds of the invention was tested against the DENV-2 16681 strain which was labeled with enhanced green fluorescent protein (eGPF). The culture medium consists of minimal essential medium supplemented with 2% of heat-inactivated fetal calf serum, 0.04% gentamycin (50 mg/mL) and 2 mM of L-glutamine. Vero cells, obtained from ECACC, were suspended in culture medium and 25 μL was added to 384-well plates (2500 cells/well), which already contain the antiviral compounds. Typically, these plates contain a 5-fold serial dilution of 9 dilution steps of the test compound at 200 times the final concentration in 100% DMSO (200 nL). […] Finally, each plate contains wells which are assigned as virus controls (containing cells and virus in the absence of compound), cell controls (containing cells in the absence of virus and compound) and medium controls (containing medium in the absence of cells, virus and compounds). To the wells assigned as medium control, 25 μL of culture medium was added instead of Vero cells. Once the cells were added to the plates, the plates were incubated for 30 minutes at room temperature to allow the cells to distribute evenly within the wells. Next, the plates were incubated in a fully humidified incubator (37° C., 5% CO2) until the next day. Then, DENV-2 strain 16681, labeled with eGFP, was added at a multiplicity of infection (MOI) of 0.5. Therefore, 15 μL of virus suspension was added to all the wells containing test compound and to the wells assigned as virus control. In parallel, 15 μL of culture medium was added to the medium and cell controls. Next, the plates were incubated for 3 days in a fully humidified incubator (37° C., 5% CO2). At the day of the read out, the eGFP fluorescence was measured using an automated fluorescence microscope at 488 nm (blue laser). Using an in-house LIMS system, inhibition dose response curves for each compound were calculated and the half maximal effective concentration (EC50) was determined. Therefore, the percent inhibition (I) for every test concentration is calculated using the following formula: I=100*(ST-SCC)/(SVC-SCC), ST, SCC and SVC are the amount of eGFP signal in the test compound, cell control and virus control wells, respectively. The EC50 represents the concentration of a compound at which the virus replication is inhibited with 50%, as measured by a 50% reduction of the eGFP fluorescent intensity compared to the virus control. The EC50 is calculated using linear interpolation (Table 1).

DENV-2 strain 16681 = assay: Tetravalent RT-qPCR assay Protocol A, serotype 2; type: cell-based; conditions: Dengue virus
Experimental: (§1) The antiviral activity of the compounds of the invention was tested against DENV-1 strain TC974#666 (NCPV), DENV-2 strain 16681, DENV-3 strain H87 (NCPV) and DENV-4 strain H241 (NCPV) in a RT-qPCR assay. Therefore, Vero cells were infected with either DENV-1, or -2, or -3, or -4 in the presence or absence of test compounds. At day 3 post-infection, the cells were lysed and cell lysates were used to prepare cDNA of both a viral target (the 3′UTR of DENV; Table 2) and a cellular reference gene (β-actin, Table 2). Subsequently, a duplex real time PCR was performed on a Lightcycler480 instrument. The generated Cp value is inversely proportional to the amount of RNA expression of these targets. Inhibition of DENV replication by a test compound results in a shift of Cp's for the 3′UTR gene. On the other hand, if a test compound is toxic to the cells, a similar effect on β-actin expression will be observed. The comparative ΔΔCp method is used to calculate EC50, which is based on the relative gene expression of the target gene (3′UTR) normalized with the cellular housekeeping gene (β-actin). In addition, CC50 values are determined based on the Cp values acquired for the housekeeping gene β-actin.
(§2) The culture medium consisted of minimal essential medium supplemented with 2% of heat-inactivated fetal calf serum, 0.04% gentamycin (50 mg/mL) and 2 mM of L-glutamine. Vero cells, obtained from ECACC, were suspended in culture medium and 75 μL/well was added in 96-well plates (10000 cells/well), which already contain the antiviral compounds. […] In addition, each plate contains wells which are assigned as virus controls (containing cells and virus in the absence of compound) and cell controls (containing cells in the absence of virus and compound). Once the cells were added in the plates, the plates were incubated in a fully humidified incubator (37° C., 5% CO2) until the next day. Dengue viruses serotype-1, 2, 3 and 4 were diluted in order to obtain a Cp of ˜22-24 in the assay. Therefore, 25 μL of virus suspension was added to all the wells containing test compound and to the wells assigned as virus control. In parallel, 25 μL of culture medium was added to the cell controls. Next, the plates were incubated for 3 days in a fully humidified incubator (37° C., 5% CO2). After 3 days, the supernatant was removed from the wells and the cells were washed twice with ice-cold PBS (˜100 μL). The cell pellets within the 96-well plates were stored at −80° C. for at least 1 day. Next, RNA was extracted using the Cells-to-CT™ lysis kit, according to the manufacturer's guideline (Life Technologies). The cell lysates can be stored at −80° C. or immediately used in the reverse transcription step.
(§3) In preparation of the reverse transcription step, mix A (table 3A) was prepared and 7.57 μL/well was dispensed in a 96-well plate. After addition of 5 μL of the cell lysates, a five minute denaturation step at 75° C. was performed (table 3B). Afterwards, 7.43 μL of mix B was added (table 3C) and the reverse transcription step was initiated (table 3D) to generate cDNA.
(§4) Finally, a RT-qPCR mix was prepared, mix C (table 4A), and 22.02 μL/well was dispensed in 96-well LightCycler qPCR plates to which 3 μL of cDNA was added and the qPCR was performed according to the conditions in table 4B on a LightCycler 480.
(§5) Using the LightCycler software and an in-house LIMS system, dose response curves for each compound were calculated and the half maximal effective concentration (EC50) and the half maximal cytotoxic concentration (CC50) were determined (Tables 5-8).

Vero cells = conditions: African green monkey
DENV-3 strain H87 = assay: Tetravalent RT-qPCR assay Protocol A, serotype 3; type: cell-based; conditions: Dengue virus, DENV3, 72 h; RT-qPCR serotype 3 H87, Vero cells, day 3
Experimental: as §1, §2, §3, §4, §5

DENV-1 strain TC974#666 = assay: Tetravalent RT-qPCR assay Protocol A, serotype 1; type: cell-based; conditions: Dengue virus, DENV1, 72 h; RT-qPCR serotype 1 TC974#666, Vero cells, day 3
Experimental: as §1, §2, §3, §4, §5

DENV-4 strain H241 = assay: Tetravalent RT-qPCR assay Protocol A, serotype 4; type: cell-based; conditions: Dengue virus, DENV4, 72 h; RT-qPCR serotype 4 H241, Vero cells, day 3
Experimental: as §1, §2, §3, §4, §5

in vitro [2] = type: cell-based; conditions: African green monkey
Experimental: as §1, §2, §3, §4, §5

[3] = DENV2, 72 h, RT-qPCR serotype 2 16681, Vero cells, day 3, read-out: EC50

Row | Structure (SMILES) | melting point | CC50 (in vitro [1]) | EC50 (DENV-2 16681 strain; Dengue virus, DENV2, Vero, 72 h) | EC50 (DENV-2 strain 16681; DENV2, Vero, 72 h) | CC50 (Vero cells) | EC50 (DENV-3 strain H87) | EC50 (DENV-1 strain TC974#666) | EC50 (DENV-4 strain H241) | CC50 at 3 days (in vitro [2]) | EC50 (DENV-2 16681 strain) | EC50 (DENV-2 strain 16681; [3])
1 | COc1cc(NC(C(=O)N2CCc3c(C)cc(OC(F)(F)F)cc32)c2ccc(Cl)cc2OCCCC(=O)O)cc(-n2cncn2)c1 (racemic) [Compound 16, 4-(5-chloro-2-(1-((3-methoxy-5-(1H-1,2,4-triazol-1-yl)phenyl)amino)-2-(4-methyl-6-(trifluoromethoxy)indolin-1-yl)-2-oxoethyl)phenoxy)butanoic acid] | 214 °C | 11000 nM | 0.11 nM |  |  |  |  |  |  |  | 
2 | COc1cc(NC(C(=O)N2CCc3ccc(OC(F)(F)F)cc32)c2ccc(Cl)cc2OCCC(C)(C)C(=O)O)cc(-n2cncn2)c1 (single isomer, unassigned) [Compound 14B] |  |  |  | 0.16 nM | 9400 nM | 5.5 nM | 0.22 nM | 23 nM | 2300 nM | 0.27 nM | 
3 | COc1cc(NC(C(=O)N2CCc3ccc(C(F)(F)F)cc32)c2ccc(Cl)cc2OCCCC(=O)O)cc(-n2cncn2)c1 (single isomer, unassigned) [Compound 11B] |  |  |  |  | 12000 nM | 6.5 nM | 0.095 nM | 20 nM | > 2500 nM | 0.2 nM | 0.059 nM
4 | COc1cc(NC(C(=O)N2CCc3c(C)cc(OC(F)(F)F)cc32)c2ccc(Cl)cc2OCCCC(=O)O)cc(-n2cncn2)c1 (single isomer, unassigned) [Compound 16B] |  |  |  |  | 6200 nM | 0.87 nM | 0.092 nM | 5.3 nM | > 1000 nM | 0.069 nM | 0.055 nM
